Reference: US8642626B2, “Ethinyl-pyrazole derivative” (Taisho Pharmaceutical Co., Ltd., priority 2010, dated 2014)

target: T1, rat metabotropic glutamate receptor (mGlu2) (Rattus norvegicus, UniProt P31421); assay: [35S]GTPγS binding test (1), crude membrane fraction of CHO cells stably expressing rat mGlu2; type: biochemical; conditions: inhibition of glutamic acid (20 μM)-stimulated specific [35S]GTPγS binding, rat mGlu2 CHO membranes
T1 construct: expressed in transfected cells
Method: [^35S]GTPγS Binding Test (1)
(Preparation of Crude Membrane Fraction of CHO Cells Stably Expressing the Rat Metabotropic Glutamate Receptor (mGlu2))
(§1) CHO cells stably expressing the rat mGlu2 were cultured in a 10% dialyzed fetal bovine serum-containing Dulbecco's Modified Eagle's Medium [1% proline, 50 units/mL penicillin, 50 μg/mL streptomycin, and 2 mM L-glutamine (to be added when used)] at 37° C. in 5% CO2. Confluent cells were washed with PBS(−) twice, and were then harvested with a cell scraper. Then, the cells were centrifuged at 4° C. at 1000 rpm for 5 minutes to collect. The obtained precipitate was suspended in a 20 mM HEPES buffer (pH 7.4), and then homogenized with a Teflon (registered trademark) homogenizer. The resultant was centrifuged at 4° C. at 48,000×g for 20 minutes to obtain a precipitate again. The obtained precipitate was washed twice by centrifugation, and was then homogenized with the above-mentioned buffer, so as to obtain a crude membrane fraction. The obtained crude membrane fraction was preserved at −80° C.
The frozen membrane fraction as prepared above was thawed when used, and it was then diluted with a binding test buffer (final concentration: 20 mM HEPES, 100 mM NaCl, 10 mM MgCl2, 8.4 μM GDP, 10 μg/mL saponin, and 0.1% BSA). The compound of the Example was added to a membrane fraction (10 μg protein/assay), and the obtained mixture was then incubated at 30° C. for 20 minutes. Thereafter, glutamic acid (final concentration: 20 μM; but it was 30 μM only in the compounds 1 and 40 of the Examples) and [^35S]GTPγS (final concentration: 0.15 nM) were added to the reaction mixture, and then incubated at 30° C. for 1 hour. After completion of the incubation, the reaction mixture was subjected to filtration over a Whatman GF/C filter that had previously been immersed in a 20 mM HEPES buffer (pH 7.4), and the filter was then washed three times with 300 μL of ice-cold 20 mM HEPES buffer (pH 7.4). A scintillation cocktail was added to the resulting filter, and membrane-bound radioactivity was then measured with a liquid scintillation counter.
The amount of [^35S]GTPγS bound in the case of carrying out the above described reaction in the absence of glutamic acid was defined as non-specific binding. The difference between such non-specific bound and the amount of [^35S]GTPγS bound in the presence of glutamic acid was defined as specific binding. Using non-linear analysis, a concentration-inhibition curve was produced. The concentration of the compound of each Example that caused 50% inhibition (IC50 value) of specific binding was determined from each concentration-inhibition curve.

T1 sequence (P31421 19-872): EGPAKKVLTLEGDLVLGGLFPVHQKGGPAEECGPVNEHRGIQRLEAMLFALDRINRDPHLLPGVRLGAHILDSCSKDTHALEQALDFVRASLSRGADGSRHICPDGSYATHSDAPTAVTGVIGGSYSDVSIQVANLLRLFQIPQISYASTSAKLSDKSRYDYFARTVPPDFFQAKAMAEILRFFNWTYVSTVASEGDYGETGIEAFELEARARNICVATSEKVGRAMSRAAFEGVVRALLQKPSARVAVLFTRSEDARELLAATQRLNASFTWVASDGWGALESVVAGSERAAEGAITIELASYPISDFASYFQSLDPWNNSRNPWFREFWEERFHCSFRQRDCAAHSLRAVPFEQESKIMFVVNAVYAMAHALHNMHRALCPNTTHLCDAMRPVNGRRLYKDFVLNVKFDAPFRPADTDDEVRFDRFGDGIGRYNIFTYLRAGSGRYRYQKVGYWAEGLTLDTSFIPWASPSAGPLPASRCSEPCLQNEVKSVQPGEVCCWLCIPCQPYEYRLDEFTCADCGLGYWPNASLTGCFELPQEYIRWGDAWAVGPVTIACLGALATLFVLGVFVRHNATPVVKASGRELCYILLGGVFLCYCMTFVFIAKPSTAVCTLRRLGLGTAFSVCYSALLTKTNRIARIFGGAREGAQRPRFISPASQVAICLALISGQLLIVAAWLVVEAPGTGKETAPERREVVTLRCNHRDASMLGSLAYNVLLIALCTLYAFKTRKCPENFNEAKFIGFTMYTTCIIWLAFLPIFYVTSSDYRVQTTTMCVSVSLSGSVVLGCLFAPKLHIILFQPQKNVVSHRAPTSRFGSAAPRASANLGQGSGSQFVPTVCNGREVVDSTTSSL

Row | SMILES | IC50
1 | Cn1ncc(C#Cc2cccc(S(N)(=O)=O)c2)c1COc1ccc(C#N)cc1 [Example 100, 3-({5-[(4-cyanophenoxy)methyl]-1-methyl-1H-pyrazol-4-yl}ethynyl)benzenesulfonamide] | 61.8 nM
2 | Cn1ncc(C#Cc2ccc(S(N)(=O)=O)cc2)c1-c1ccc(C(F)(F)F)cn1 [Example 50, 4-({1-methyl-5-[5-(trifluoromethyl)pyridin-2-yl]-1H-pyrazol-4-yl}ethynyl)benzenesulfonamide] | 76.4 nM
3 | Cn1ncc(C#Cc2cccc(S(N)(=O)=O)c2)c1CNc1ccc(C(F)(F)F)cc1 [Example 98] | 42.8 nM
4 | Cn1ncc(C#Cc2cccc(S(N)(=O)=O)c2)c1OCc1ccc(C(F)(F)F)cc1 [Example 89, 3-[(1-methyl-5-{[4-(trifluoromethyl)benzyl]oxy}-1H-pyrazol-4-yl)ethynyl]benzenesulfonamide] | 55.1 nM

The remaining lines, values ahead:

Row | IC50 | SMILES
5 | 22 nM | Cn1ncc(C#Cc2ccc(S(N)(=O)=O)cc2F)c1CCc1ccc(C(F)(F)F)cc1 [Example 83, 3-fluoro-4-[(1-methyl-5-{2-[4-(trifluoromethyl)phenyl]ethyl}-1H-pyrazol-4-yl)ethynyl]benzenesulfonamide]
6 | 18.2 nM | Cn1ncc(C#Cc2cccc(S(N)(=O)=O)c2)c1CCc1cccc(C(F)(F)F)c1 [Example 94, 3-[(1-methyl-5-{2-[3-(trifluoromethyl)phenyl]ethyl}-1H-pyrazol-4-yl)ethynyl]benzenesulfonamide]
7 | 14.6 nM | Cc1nn(C)c(COc2ccc(C(F)(F)F)cc2)c1C#Cc1cccc(S(N)(=O)=O)c1 [Example 81, 3-[(1,3-dimethyl-5-{[4-(trifluoromethyl)phenoxy]methyl}-1H-pyrazol-4-yl)ethynyl]benzenesulfonamide]
8 | 13.8 nM | Cn1ncc(C#Cc2ccc(S(N)(=O)=O)cc2)c1N1Cc2ccc(Cl)cc2C1 [Example 58, 4-{[5-(5-chloro-1,3-dihydro-2H-isoindol-2-yl)-1-methyl-1H-pyrazol-4-yl]ethynyl}benzenesulfonamide]
9 | 9.77 nM | Cn1ncc(C#Cc2ccc(S(N)(=O)=O)cc2)c1-c1cnn(-c2ccc(C(F)(F)F)cc2)c1 [Example 64, 4-({2-methyl-1′-[4-(trifluoromethyl)phenyl]-1′H,2H-3,4′-bipyrazol-4-yl}ethynyl)benzenesulfonamide]
10 | 7.88 nM | Cn1ncc(C#Cc2cccc(S(N)(=O)=O)c2)c1CCOc1ccc(C(F)(F)F)cc1 [Example 106, 3-[(1-methyl-5-{2-[4-(trifluoromethyl)phenoxy]ethyl}-1H-pyrazol-4-yl)ethynyl]benzenesulfonamide]
11 | 3.43 nM | Cn1ncc(C#Cc2cccc(S(N)(=O)=O)c2)c1-c1cc(-c2ccc(C(F)(F)F)cc2)no1 [Example 87, 3-[(1-methyl-5-{3-[4-(trifluoromethyl)phenyl]-1,2-oxazol-5-yl}-1H-pyrazol-4-yl)ethynyl]benzenesulfonamide]
12 | 2.72 nM | Cn1ncc(C#Cc2cccc(S(N)(=O)=O)c2)c1COc1ccc(C(F)(F)F)cc1 [Example 84, 3-[(1-methyl-5-{[4-(trifluoromethyl)phenoxy]methyl}-1H-pyrazol-4-yl)ethynyl]benzenesulfonamide]
13 | 2.1 nM | Cn1ncc(C#Cc2ccc(S(N)(=O)=O)cc2)c1-c1nc(-c2ccc(C(F)(F)F)cc2)no1 [Example 73, 4-[(1-methyl-5-{3-[4-(trifluoromethyl)phenyl]-1,2,4-oxadiazol-5-yl}-1H-pyrazol-4-yl)ethynyl]benzenesulfonamide]

same assay, conditions: inhibition of glutamic acid (30 μM, only compounds 1 and 40)-stimulated specific [35S]GTPγS binding, rat mGlu2 CHO membranes

Row | IC50 | SMILES
14 | 24.2 nM | Cn1ncc(C#Cc2cccc(S(N)(=O)=O)c2)c1N1Cc2cc3ccccc3cc2C1 [Example 40, 3-{[5-(1,3-dihydro-2H-benzo[f]isoindol-2-yl)-1-methyl-1H-pyrazol-4-yl]ethynyl}benzenesulfonamide]
15 | 158 nM | CN(C)CCNS(=O)(=O)c1cccc(C#Cc2cnn(C)c2-c2ccc(C(F)(F)F)cc2)c1 [Example 1, N-[2-(dimethylamino)ethyl]-3-({1-methyl-5-[4-(trifluoromethyl)phenyl]-1H-pyrazol-4-yl}ethynyl)benzenesulfonamide]

target: T2, human metabotropic glutamate receptor (mGlu2) (Homo sapiens, UniProt Q14416); assay: [35S]GTPγS binding test (2), crude membrane fraction of CHO cells stably expressing human mGlu2; type: biochemical; conditions: inhibition of glutamic acid (20 μM)-stimulated specific [35S]GTPγS binding, human mGlu2 CHO membranes
T2 construct: expressed in transfected cells
Method: [^35S]GTPγS Binding Test (2)
(Preparation of Crude Membrane Fraction of CHO Cells Stably Expressing the Human Metabotropic Glutamate Receptor (mGlu2))
as §1, with “human” for “rat”, “mGlu2 receptor” for “mGlu2”, “streptomycin, 400 μg/mL hygromycin B,” for “streptomycin,”, “The obtained crude membrane fraction was preserved at −80° C.” left out
The frozen membrane fraction as prepared above was thawed when used, and it was then diluted with a binding test buffer (final concentration: 20 mM HEPES, 100 mM NaCl, 10 mM MgCl2, 8.4 μM GDP, 10 μg/mL saponin, and 0.1% BSA). […] A scintillation cocktail was added to the resulting filter, and membrane-bound radioactivity was then measured with a liquid scintillation counter. […]

T2 sequence (Q14416 19-872): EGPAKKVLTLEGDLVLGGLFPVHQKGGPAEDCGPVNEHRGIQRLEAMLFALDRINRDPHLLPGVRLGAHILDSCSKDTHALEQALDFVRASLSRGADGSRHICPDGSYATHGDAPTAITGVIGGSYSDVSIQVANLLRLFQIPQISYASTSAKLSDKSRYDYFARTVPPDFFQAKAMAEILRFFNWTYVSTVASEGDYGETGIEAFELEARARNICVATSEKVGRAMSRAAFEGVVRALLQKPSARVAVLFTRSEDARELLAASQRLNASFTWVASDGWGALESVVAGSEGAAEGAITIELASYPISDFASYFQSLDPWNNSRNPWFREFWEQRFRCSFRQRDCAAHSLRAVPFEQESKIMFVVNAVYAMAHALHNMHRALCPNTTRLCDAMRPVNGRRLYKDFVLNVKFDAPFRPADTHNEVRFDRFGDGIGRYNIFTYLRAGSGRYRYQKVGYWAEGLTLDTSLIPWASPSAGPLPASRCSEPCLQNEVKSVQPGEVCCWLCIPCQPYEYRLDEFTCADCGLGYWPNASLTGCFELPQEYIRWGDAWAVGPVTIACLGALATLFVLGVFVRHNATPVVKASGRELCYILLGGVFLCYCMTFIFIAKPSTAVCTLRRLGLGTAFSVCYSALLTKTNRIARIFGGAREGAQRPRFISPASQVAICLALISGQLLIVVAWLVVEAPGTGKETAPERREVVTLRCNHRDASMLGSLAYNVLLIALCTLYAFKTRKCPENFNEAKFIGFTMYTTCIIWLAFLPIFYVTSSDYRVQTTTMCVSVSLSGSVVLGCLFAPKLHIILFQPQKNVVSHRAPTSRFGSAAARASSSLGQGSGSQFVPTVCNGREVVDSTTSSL

Row | IC50 | SMILES
16 | 9.22 nM | Cn1ncc(C#Cc2ccc(S(N)(=O)=O)cc2)c1COc1ccc(F)cn1 [Example 108, 4-[(5-{[(5-fluoropyridin-2-yl)oxy]methyl}-1-methyl-1H-pyrazol-4-yl)ethynyl]benzenesulfonamide]
17 | 1.22 nM | Cn1ncc(C#Cc2ccc(S(N)(=O)=O)cc2)c1COc1ccc(C(F)(F)F)cn1 [Example 109, 4-{[1-methyl-5-({[5-(trifluoromethyl)pyridin-2-yl]oxy}methyl)-1H-pyrazol-4-yl]ethynyl}benzenesulfonamide]
